ChEMBL document CHEMBL1806354 (J Med Chem, 2011)
pKi: −log10 of the molar value.

Key:
Format in all cases: cell-based
D(2) dopamine receptor [1] = biological target: T1, D(2) dopamine receptor (Homo sapiens, UniProt P14416); experiment: Displacement of [3H]spiperone from dopamine D2 receptor expressed in HEK293 cells after 50 mins by beta liquid scintillation counter
[2] = biological target: T2, 5-hydroxytryptamine receptor 2A (Homo sapiens, UniProt P28223); experiment: Displacement of [3H]ketanserin from 5-HT2A receptor expressed in CHO cells after 50 mins by beta liquid scintillation counter
T2 sequence (P28223 whole entry): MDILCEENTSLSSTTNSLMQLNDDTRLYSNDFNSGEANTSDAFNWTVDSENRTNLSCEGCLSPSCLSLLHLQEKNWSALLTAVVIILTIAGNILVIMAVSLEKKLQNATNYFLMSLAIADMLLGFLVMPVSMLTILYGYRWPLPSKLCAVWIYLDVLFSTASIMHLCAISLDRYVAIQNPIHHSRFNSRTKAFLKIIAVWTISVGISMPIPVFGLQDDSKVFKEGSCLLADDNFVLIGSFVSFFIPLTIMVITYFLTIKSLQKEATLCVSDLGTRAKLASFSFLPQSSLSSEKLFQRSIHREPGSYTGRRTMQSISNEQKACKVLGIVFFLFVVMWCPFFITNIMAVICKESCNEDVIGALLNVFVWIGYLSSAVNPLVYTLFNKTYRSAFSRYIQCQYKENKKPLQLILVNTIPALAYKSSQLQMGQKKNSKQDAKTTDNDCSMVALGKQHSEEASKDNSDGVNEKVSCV

[3] = biological target: T3, 5-hydroxytryptamine receptor 1A (Homo sapiens, UniProt P08908); experiment: Displacement of [3H]-8-OH-DPAT from 5-HT1A receptor expressed in CHO cells after 50 mins by beta liquid scintillation counter
T3 sequence (P08908 whole entry): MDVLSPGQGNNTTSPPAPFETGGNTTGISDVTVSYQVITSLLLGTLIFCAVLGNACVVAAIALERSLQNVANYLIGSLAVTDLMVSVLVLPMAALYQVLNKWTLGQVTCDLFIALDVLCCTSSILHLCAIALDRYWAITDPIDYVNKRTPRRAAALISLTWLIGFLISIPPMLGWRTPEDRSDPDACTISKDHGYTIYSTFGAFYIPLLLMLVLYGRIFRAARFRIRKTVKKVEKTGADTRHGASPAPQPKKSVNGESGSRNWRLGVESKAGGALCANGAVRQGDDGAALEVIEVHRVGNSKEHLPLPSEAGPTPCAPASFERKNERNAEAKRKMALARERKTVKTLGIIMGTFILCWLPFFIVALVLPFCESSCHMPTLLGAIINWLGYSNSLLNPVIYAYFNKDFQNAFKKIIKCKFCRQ

D(1A) dopamine receptor [4] = biological target: T4, D(1A) dopamine receptor (Homo sapiens, UniProt P21728); experiment: Displacement of [3H]SCH23390 from dopamine D1 receptor expressed in HEK293 cells after 50 mins by beta liquid scintillation counter
T4 sequence (P21728 whole entry): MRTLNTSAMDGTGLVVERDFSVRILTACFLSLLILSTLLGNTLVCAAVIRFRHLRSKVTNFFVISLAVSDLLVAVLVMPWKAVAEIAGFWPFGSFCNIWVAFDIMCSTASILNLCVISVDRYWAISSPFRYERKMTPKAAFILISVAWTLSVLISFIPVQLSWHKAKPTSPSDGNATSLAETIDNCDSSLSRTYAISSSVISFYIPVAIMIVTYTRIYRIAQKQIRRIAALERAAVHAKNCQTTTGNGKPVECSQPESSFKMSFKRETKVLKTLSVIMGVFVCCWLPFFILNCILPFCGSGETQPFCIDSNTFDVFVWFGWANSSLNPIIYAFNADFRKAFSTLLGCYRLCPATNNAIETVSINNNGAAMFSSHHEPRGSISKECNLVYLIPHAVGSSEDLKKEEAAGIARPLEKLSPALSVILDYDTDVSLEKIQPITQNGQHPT

[5] = biological target: T2, 5-hydroxytryptamine receptor 2A; experiment: Displacement of [3H]ketanserin from 5-HT2A receptor expressed in CHO cells at 10 uM after 50 mins by beta liquid scintillation counter
D(1A) dopamine receptor [6] = biological target: T4, D(1A) dopamine receptor; experiment: Displacement of [3H]SCH23390 from dopamine D1 receptor expressed in HEK293 cells at 10 uM after 50 mins by beta liquid scintillation counter
D(2) dopamine receptor [7] = biological target: T1, D(2) dopamine receptor; experiment: Displacement of [3H]spiperone from dopamine D2 receptor expressed in HEK293 cells at 10 uM after 50 mins by beta liquid scintillation counter

T1 sequence (P14416 whole entry): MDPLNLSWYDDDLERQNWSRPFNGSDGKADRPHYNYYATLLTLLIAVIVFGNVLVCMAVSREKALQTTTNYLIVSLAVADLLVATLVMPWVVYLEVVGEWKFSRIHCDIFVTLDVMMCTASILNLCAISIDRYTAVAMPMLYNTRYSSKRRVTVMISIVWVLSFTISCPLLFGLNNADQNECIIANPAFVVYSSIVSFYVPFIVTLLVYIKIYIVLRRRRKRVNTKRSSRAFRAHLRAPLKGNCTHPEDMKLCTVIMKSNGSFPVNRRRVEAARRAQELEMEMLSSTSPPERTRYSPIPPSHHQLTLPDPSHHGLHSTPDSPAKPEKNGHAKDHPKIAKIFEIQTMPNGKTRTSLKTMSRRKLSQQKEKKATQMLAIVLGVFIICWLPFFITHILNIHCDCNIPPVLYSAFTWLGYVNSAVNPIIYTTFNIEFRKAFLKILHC

inhibition (D(2) dopamine receptor [7])	SMILES	pKi (D(2) dopamine receptor [1])	pKi [2]	pKi [3]	pKi (D(1A) dopamine receptor [4])	inhibition [5]	inhibition (D(1A) dopamine receptor [6])
	CCCN1CCc2cccc3c2C1Cc1cccc(OC(=O)NCc2ccccc2)c1-3 (racemic)	5.37	5.70	6.59	5.38		
	CCCN1CCc2cccc3c2[C@H]1Cc1cccc(OC(=O)CCCC[C@@H]2CCSS2)c1-3	6.53		7.35			69.6%
	CCCN1CCc2cccc3c2[C@H]1Cc1cccc(N)c1-3	6.45		6.56		49.4%	57.1%
	CCCN1CCc2cccc3c2C1Cc1cccc(OC(=O)CSc2ccccc2)c1-3 (racemic)	6.07					67.1%
	CCCN1CCc2cccc3c2[C@H]1Cc1cccc(OC(=O)CCCC[C@H]2CCSS2)c1-3	6.47		7.46			64.8%
	CCCN1CCc2cccc3c2[C@H]1Cc1cccc(OC(=O)NCc2ccccc2)c1-3	5.66		7.05	5.62	76.6%	
	CCCN1CCc2cccc3c2[C@H]1Cc1cccc(O)c1-3					63%	63.2%
15.7%	CCCN1CCc2cccc3c2C1Cc1cccc(CNC(=O)NCC)c1-3 (racemic)						35.4%
55.2%	CCCN1CCc2cccc3c2C1Cc1cccc(OC(=O)CCCCC2CCSS2)c1-3 (racemic)			6.86		14.7%	62.7%
	CCCN1CCc2cccc3c2C1Cc1cccc(OC(=O)NC(C)(C)C)c1-3 (racemic)	5.55		6.66		20%	44.2%
9.6%	CCCN1CCc2cccc3c2C1Cc1cccc(CNC(=O)CCCCC2CCSS2)c1-3 (racemic)						32.4%
19.5%	CCCN1CCc2cccc3c2C1Cc1cccc(-c2noc(CCCCC4CCSS4)n2)c1-3 (racemic)						57%
13.5%	CCCC(=O)Nc1cccc2c1-c1cccc3c1[C@@H](C2)N(CCC)CC3			6.42		16.6%	16.1%
	CCCN1CCc2cccc3c2[C@H]1Cc1cccc(OC(=O)NC(C)(C)C)c1-3	6.06		7.02		29.2%	70.2%
	CCCC(=O)Oc1cccc2c1-c1cccc3c1[C@@H](C2)N(CCC)CC3	7.26		7.92		68%	63.2%
33.1%	CCCN1CCc2cccc3c2[C@H]1Cc1cccc(NC(=O)CCCCC2CCSS2)c1-3 (stereo not given in full)			6.60		36.9%	27.2%
	CCCN1CCc2cccc3c2C1Cc1cccc(O)c1-3 (racemic)			7.18		14.1%	55.9%
	CCCN1CCc2cccc3c2C1Cc1cccc(OC(=O)Nc2cccc4ccccc24)c1-3 (stereo not given)	5.70		6.91		21.7%	48%
3.1%	CCCN1CCc2cccc3c2C1Cc1cccc(CNC(=S)CCCCC2CCSS2)c1-3 (racemic)						11.4%

SMILES	inhibition (D(2) dopamine receptor [7])	pKi (D(2) dopamine receptor [1])	pKi [2]	pKi [3]	pKi (D(1A) dopamine receptor [4])	inhibition [5]	inhibition (D(1A) dopamine receptor [6])
CCCN1CCc2cccc3c2[C@H]1Cc1cccc(OC(=O)NCC)c1-3	44.3%			7.03		14.5%	54.6%
CCCN1CCc2cccc3c2C1Cc1cccc(OC(=O)NCC)c1-3 (racemic)	56.7%			6.66		19.8%	46.1%
CCCCNC(=O)Oc1cccc2c1-c1cccc3c1[C@@H](C2)N(CCC)CC3	40.9%			7.05		34.9%	53.6%
CCCCNC(=O)Oc1cccc2c1-c1cccc3c1C(C2)N(CCC)CC3 (racemic)	53.2%			6.41		37.4%	36.5%
CCCNC(=O)Oc1cccc2c1-c1cccc3c1[C@@H](C2)N(CCC)CC3	50.9%			7.06		16%	56.3%
CCCNC(=O)Oc1cccc2c1-c1cccc3c1C(C2)N(CCC)CC3 (racemic)	52.7%			6.59		30.1%	26.2%
